From PMC5988656, “Phase I studies of AZD1208, a proviral integration Moloney virus kinase inhibitor in solid and haematological cancers” (British Journal of Cancer, 2018)

System: patients with advanced solid tumours
Test: Solid tumour dose-escalation study: safety and tolerability (AEs, DLTs)
Text: Conducted at two UK centres and one in Japan. Dose escalation followed a rolling six design.[14] Patients received a single dose on Day 1 during Cycle 0, followed by a 3-day washout period, after which multiple dosing was initiated. Cycle 1 was a 21-day period from the first dose of multiple dosing.
The CTCAE (version 4.0) was utilised to grade all AE events.
AEs were summarised by Medical Dictionary for Regulatory Activities (MedDRA) system organ class, MedDRA preferred term and CTCAE grade. Summary statistics of mean, median, standard deviation, minimum, maximum and number of observations were used.

N[C@@H]1CCCN(c2c(/C=C3\SC(=O)NC3=O)cccc2-c2ccccc2)C1 [AZD1208]
3 (50.0) n (%): Constipation (all-grade AE) (360 mg, n = 6) | Fatigue (all-grade AE) (360 mg, n = 6) | Nausea (all-grade AE) (360 mg, n = 6) | Pyrexia (all-grade AE) (360 mg, n = 6)
3 (100.0) n (%): Anaemia (all-grade AE) (120 mg, n = 3) | Patients with any AE (all-grade AE) (120 mg, n = 3)
1 (33.3) n (%): Decreased appetite (all-grade AE) (120 mg, n = 3) | Hyperglycaemia (all-grade AE) (120 mg, n = 3) | Hypoalbuminaemia (all-grade AE) (120 mg, n = 3) | Nausea (all-grade AE) (120 mg, n = 3)
2 (33.3) n (%): Abdominal pain (all-grade AE) (360 mg, n = 6) | Anaemia (all-grade AE) (360 mg, n = 6) | Decreased appetite (all-grade AE) (360 mg, n = 6) | Dyspnoea (all-grade AE) (360 mg, n = 6) | Hypoalbuminaemia (all-grade AE) (360 mg, n = 6) | Musculoskeletal chest pain (all-grade AE) (360 mg, n = 6) | Thrombocytopenia (all-grade AE) (360 mg, n = 6)
1 (14.3) n (%): Dyspnoea (all-grade AE) (240 mg, n = 7) | Insomnia (all-grade AE) (240 mg, n = 7) | Pyrexia (all-grade AE) (240 mg, n = 7) | Dyspnoea (all-grade AE) (540 mg, n = 7) | Hypoalbuminaemia (all-grade AE) (540 mg, n = 7) | Insomnia (all-grade AE) (540 mg, n = 7) | Musculoskeletal chest pain (all-grade AE) (540 mg, n = 7) | Thrombocytopenia (all-grade AE) (540 mg, n = 7)
2 (66.7) n (%): Diarrhoea (all-grade AE) (120 mg, n = 3) | Platelet count decreased (all-grade AE) (120 mg, n = 3) | White blood cell count decreased (all-grade AE) (120 mg, n = 3)
1 n: Patients with CTCAE grade ≥3 AEs causally related to AZD1208 (360 mg (lymphocyte decreased))
7 (100.0) n (%): Patients with any AE (all-grade AE) (240 mg, n = 7) | Nausea (all-grade AE) (540 mg, n = 7) | Patients with any AE (all-grade AE) (540 mg, n = 7)
6 (85.7) n (%): Nausea (all-grade AE) (240 mg, n = 7) | Vomiting (all-grade AE) (240 mg, n = 7) | Diarrhoea (all-grade AE) (540 mg, n = 7)
Vomiting, drug permanently discontinued: DLT detail, action taken (540 mg, n = 7)
6 (100.0) n (%): Patients with any AE (all-grade AE) (360 mg, n = 6)
6 n: Patients requiring dose interruptions because of AEs (540 mg)
2 n: Patients requiring dose interruptions because of AEs (240 mg) | Patients with CTCAE grade ≥3 AEs causally related to AZD1208 (540 mg (vomiting, fatigue, lethargy))
1 (16.7) n (%): Dry skin (all-grade AE) (360 mg, n = 6) | GGT increased (all-grade AE) (360 mg, n = 6) | Hyperglycaemia (all-grade AE) (360 mg, n = 6) | Hyponatraemia (all-grade AE) (360 mg, n = 6) | Insomnia (all-grade AE) (360 mg, n = 6) | Platelet count decreased (all-grade AE) (360 mg, n = 6) | Vomiting (all-grade AE) (360 mg, n = 6) | White blood cell count decreased (all-grade AE) (360 mg, n = 6)
3 (42.9) n (%): Abdominal pain (all-grade AE) (240 mg, n = 7) | Decreased appetite (all-grade AE) (240 mg, n = 7) | Dry skin (all-grade AE) (240 mg, n = 7) | White blood cell count decreased (all-grade AE) (240 mg, n = 7) | Fatigue (all-grade AE) (540 mg, n = 7) | Hyponatraemia (all-grade AE) (540 mg, n = 7)
2 (28.6) n (%): Fatigue (all-grade AE) (240 mg, n = 7) | GGT increased (all-grade AE) (240 mg, n = 7) | Hypoalbuminaemia (all-grade AE) (240 mg, n = 7) | Platelet count decreased (all-grade AE) (240 mg, n = 7) | Abdominal pain (all-grade AE) (540 mg, n = 7) | Dry skin (all-grade AE) (540 mg, n = 7) | GGT increased (all-grade AE) (540 mg, n = 7) | Hypokalaemia (all-grade AE) (540 mg, n = 7) | Platelet count decreased (all-grade AE) (540 mg, n = 7)
5 (71.4) n (%): Diarrhoea (all-grade AE) (240 mg, n = 7) | Vomiting (all-grade AE) (540 mg, n = 7)
5 (83.3) n (%): Diarrhoea (all-grade AE) (360 mg, n = 6)
GGT increased, drug interrupted: DLT detail, action taken (240 mg, n = 7)
3 n: Patients with CTCAE grade ≥3 AEs causally related to AZD1208 (240 mg (anaemia, alanine transaminase increased, GGT increased)) | Patients requiring dose interruptions because of AEs (360 mg)
0 (0.0) n (%): Abdominal pain (all-grade AE) (120 mg, n = 3) | Constipation (all-grade AE) (120 mg, n = 3) | Dry skin (all-grade AE) (120 mg, n = 3) | Dyspnoea (all-grade AE) (120 mg, n = 3) | Fatigue (all-grade AE) (120 mg, n = 3) | GGT increased (all-grade AE) (120 mg, n = 3) | Hypokalaemia (all-grade AE) (120 mg, n = 3) | Hyponatraemia (all-grade AE) (120 mg, n = 3) | Insomnia (all-grade AE) (120 mg, n = 3) | Musculoskeletal chest pain (all-grade AE) (120 mg, n = 3) | Pyrexia (all-grade AE) (120 mg, n = 3) | Thrombocytopenia (all-grade AE) (120 mg, n = 3) | Vomiting (all-grade AE) (120 mg, n = 3) | Constipation (all-grade AE) (240 mg, n = 7) | Hyperglycaemia (all-grade AE) (240 mg, n = 7) | Hypokalaemia (all-grade AE) (240 mg, n = 7) | Hyponatraemia (all-grade AE) (240 mg, n = 7) | Musculoskeletal chest pain (all-grade AE) (240 mg, n = 7) | Thrombocytopenia (all-grade AE) (240 mg, n = 7) | Hypokalaemia (all-grade AE) (360 mg, n = 6) | Constipation (all-grade AE) (540 mg, n = 7) | Pyrexia (all-grade AE) (540 mg, n = 7)
4 (57.1) n (%): Anaemia (all-grade AE) (240 mg, n = 7) | Anaemia (all-grade AE) (540 mg, n = 7) | Decreased appetite (all-grade AE) (540 mg, n = 7) | Hyperglycaemia (all-grade AE) (540 mg, n = 7)
